Earlier results as cited in EP3721896B1, “EPIDERMAL GROWTH FACTOR (EGF) AND VARIANTS THEREOF FOR TREATING OR PREVENTING INFLAMMATORY DEMYELINATING DISORDERS” (Scalabrino, Giuseppe, priority 2019, dated 2023).

Tested on: experimental autoimmune encephalomyelitis (EAE)
Conditions: administered alone; Lewis rat; from EP1870106A2

## GHRP-6
  Effect on course of EAE as compared to placebo: no effect was observed
